What was measured:
[1] = system: E. coli TESEC strain (Mtb target enzyme); assay: growth (OD600 after 10 h); higher = more growth
Description: (§1)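 Chemical-genetic validation profiles: TESEC strains (Mtb Asd or DapB, arabinose-inducible) or the wild-type control grown in a two-dimensional dilution series of drug (µM) and arabinose. Growth is read as OD600 after 10 h in triplicate.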

[2] = system: E. coli wild-type control; assay: growth (OD600 after 10 h); higher = more growth
Description: as §1

Efflux+ = assay: growth (OD600 after 24 h); higher = more growth
Description: (§2)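 E. coli BW25113 ΔaraC (Efflux+) or efflux-pump deletion strains (ΔtolC ΔentC, ΔemrE, ΔmdtI, ΔyeeO, ΔmdtK, ΔmdtM) diluted 1:100 in M9-based medium with a drug dilution series. Growth is read as OD600 after 24 h; 3 biological replicates.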

∆emrE = assay: growth (OD600 after 24 h); higher = more growth
Description: as §2

∆mdtI = assay: growth (OD600 after 24 h); higher = more growth
Description: as §2

∆mdtK = assay: growth (OD600 after 24 h); higher = more growth
Description: as §2

∆mdtM = assay: growth (OD600 after 24 h); higher = more growth
Description: as §2

∆tolC ∆entC = assay: growth (OD600 after 24 h); higher = more growth
Description: as §2

∆yeeO = assay: growth (OD600 after 24 h); higher = more growth
Description: as §2

E. coli TESEC Mtb Alr = assay: growth (OD600 after 10 h, mean); higher = more growth;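 further: E. coli lacking its native Alr, complemented by codon-optimized Mtb Alr under a feedback-controlled arabinose-inducible plasmid circuit, grown in defined medium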
Description: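 TESEC Mtb Alr E. coli grown in a two-dimensional dilution series of drug (µM) and arabinose (12 to 1e8 nM). Growth is read as OD600 after 10 h; values are means of 3 biological replicates.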

CN(Cc1cc(Br)cc(Br)c1N)C1CCCCC1 [Bromhexine] (TESEC target enzyme: Mtb Asd)
growth
Conditions	drug 0.3 µM	drug 0.8 µM	drug 1.7 µM	drug 3.9 µM	drug 8.8 µM	drug 19.8 µM	drug 44.4 µM
[1], arabinose 15560 nM	0.18	0.153	–	–	–	–	–
[1], arabinose 28008 nM	0.229	0.178	–	–	–	–	–
[1], arabinose 50414 nM	0.207	0.177	–	–	–	–	–
[1], arabinose 90744 nM	0.215	0.211	–	–	–	–	–
[1], arabinose 163340 nM	0.257	0.239	–	–	–	–	–
[1], arabinose 294012 nM	0.293	0.302	–	–	–	–	–
[1], arabinose 529221 nM	0.32	0.291	–	–	–	–	–
[1], arabinose 952599 nM	0.355	0.368	–	–	–	–	–
[1], arabinose 1714678 nM	0.336	0.387	–	–	–	–	–
[1], arabinose 3086420 nM	0.328	0.361	–	–	–	–	–
[1], arabinose 5555556 nM	0.321	0.333	–	–	–	–	–
[1], arabinose 10000000 nM	0.341	0.34	–	–	–	–	–
[2], arabinose 15560 nM	0.134	0.163	0.156	0.16	0.172	0.162	–
[2], arabinose 28008 nM	0.149	0.159	0.162	0.172	0.164	0.1736	–
[2], arabinose 50414 nM	0.17	0.144	0.17	0.16	0.157	0.172	–
[2], arabinose 90744 nM	0.167	0.21	0.174	0.193	0.178	0.177	–
[2], arabinose 163340 nM	0.157	0.178	0.161	0.187	0.146	0.194	–
[2], arabinose 294012 nM	0.156	0.191	0.204	0.229	0.182	0.198	–
[2], arabinose 529221 nM	0.18	0.202	0.201	0.194	0.186	0.221	–
[2], arabinose 952599 nM	0.238	0.231	0.209	0.214	0.214	0.236	0.203
[2], arabinose 1714678 nM	0.213	0.221	0.208	0.232	0.223	0.253	0.198
[2], arabinose 3086420 nM	0.207	0.23	0.212	0.254	0.204	0.267	0.235
[2], arabinose 5555556 nM	0.189	0.214	0.206	0.198	0.201	0.218	0.232
[2], arabinose 10000000 nM	0.174	0.21	0.163	0.217	0.173	0.21	–

CN(Cc1cc(Br)cc(Br)c1N)C1CCCCC1 [Bromhexine]
growth
Conditions	Efflux+	∆emrE	∆mdtI	∆mdtK	∆mdtM	∆tolC ∆entC	∆yeeO
drug 3 µM	1.027	0.992	1.04	0.772	0.825	0.894	0.897
drug 6.25 µM	0.989	1.08	1.01	0.792	0.819	0.989	0.881
drug 12.5 µM	0.974	1.06	0.992	0.762	0.805	0.94	0.881
drug 25 µM	0.9831	1.02	0.996	0.737	0.8363	0.564	0.8876
drug 50 µM	1	1.02	0.994	0.743	0.8474	0.05317	0.905
drug 100 µM	0.998	1.04	0.9907	0.7706	0.8478	0.0597	0.917

CC/C(=C(/CC)c1ccc(O)cc1)c1ccc(O)cc1 [Diethylstilbestrol] (TESEC target enzyme: Mtb Asd)
growth
Conditions	drug 0.7 µM	drug 1.5 µM	drug 3.5 µM	drug 7.8 µM	drug 17.6 µM	drug 39.5 µM	drug 88.9 µM
[1], arabinose 15560 nM	0.236	0.214	–	–	–	–	–
[1], arabinose 28008 nM	0.223	0.157	–	–	–	–	–
[1], arabinose 50414 nM	0.238	0.191	–	–	–	–	–
[1], arabinose 90744 nM	0.252	0.218	–	–	–	–	–
[1], arabinose 163340 nM	0.254	0.227	–	–	–	–	–
[1], arabinose 294012 nM	0.29	0.222	–	–	–	–	–
[1], arabinose 529221 nM	0.207	0.214	–	–	–	–	–
[1], arabinose 952599 nM	0.2	0.228	–	–	–	–	–
[1], arabinose 1714678 nM	0.2038	0.208	–	–	–	–	–
[1], arabinose 3086420 nM	0.177	0.202	–	–	–	–	–
[1], arabinose 5555556 nM	0.168	0.198	–	–	–	–	–
[1], arabinose 10000000 nM	0.174	0.184	–	–	–	–	–
[2], arabinose 15560 nM	0.278	0.244	0.211	0.134	0.106	0.077	–
[2], arabinose 28008 nM	0.283	0.225	0.192	0.208	0.109	0.0887	–
[2], arabinose 50414 nM	0.271	0.23	0.192	0.149	0.185	0.0973	–
[2], arabinose 90744 nM	0.282	0.238	0.205	0.155	0.0906	0.075	–
[2], arabinose 163340 nM	0.245	0.22	0.207	0.163	0.11	0.108	–
[2], arabinose 294012 nM	0.224	0.222	0.201	0.151	0.0517	0.0476	–
[2], arabinose 529221 nM	0.189	0.16	0.141	0.123	0.0936	0.139	–
[2], arabinose 952599 nM	0.139	0.112	0.103	0.132	0.0957	0.0506	0.108
[2], arabinose 1714678 nM	0.118	0.104	0.106	0.112	0.124	0.147	0.119
[2], arabinose 3086420 nM	0.119	0.108	0.114	0.103	0.0984	0.114	0.111
[2], arabinose 5555556 nM	0.128	0.112	0.119	0.119	0.0951	0.0913	0.0621
[2], arabinose 10000000 nM	0.122	0.118	0.1329	0.118	0.13	0.117	–

CC(C)c1ccc2oc3nc(N)c(C(=O)O)cc3c(=O)c2c1 [Amlexanox]
growth, E. coli TESEC Mtb Alr
Conditions	drug 15.62 µM	drug 31.25 µM	drug 62.5 µM	drug 125 µM	drug 250 µM
arabinose 12 nM	0.4	0.356	0.319	0.272	–
arabinose 24 nM	0.391	0.357	0.317	0.266	–
arabinose 48 nM	0.385	0.352	0.318	0.261	–
arabinose 95 nM	0.382	0.348	0.31	0.265	–
arabinose 191 nM	0.377	0.349	0.319	0.262	–
arabinose 381 nM	0.378	0.346	0.309	0.259	–
arabinose 763 nM	0.382	0.348	0.305	0.261	–
arabinose 1526 nM	0.386	0.352	0.304	0.259	0.264
arabinose 3052 nM	0.375	0.357	0.301	0.257	0.264
arabinose 6104 nM	0.367	0.336	0.29	0.262	0.266
arabinose 12207 nM	0.325	0.306	0.278	0.275	0.281
arabinose 24414 nM	0.282	0.276	0.274	0.285	–
arabinose 48828 nM	0.264	0.266	0.28	0.295	–
arabinose 97656 nM	0.254	0.261	0.28	0.289	–
arabinose 195312 nM	0.268	0.273	0.291	0.284	–
arabinose 390625 nM	0.289	0.298	0.305	0.277	–
arabinose 781250 nM	0.31	0.317	0.304	0.268	–
arabinose 1562500 nM	0.312	0.313	0.297	0.265	–
arabinose 3125000 nM	0.307	0.302	0.292	0.259	–
arabinose 6250000 nM	0.301	0.297	0.286	0.255	–
arabinose 12500000 nM	0.302	0.293	0.284	0.248	–
arabinose 25000000 nM	0.298	0.299	0.282	0.235	–
arabinose 50000000 nM	0.286	0.282	0.259	0.213	–
arabinose 100000000 nM	0.216	0.212	0.216	0.16	–

Reference: the supplement of paper PMC9262897, “Low-cost anti-mycobacterial drug discovery using engineered E. coli” (Nature Communications, 2022)
